Laboratory results as given in US5952204A, “β-fructofuranosidase, its preparation and uses” (priority 1995, dated 1999).

system: β-fructofuranosidase; assay: Substrate specificity (TLC); format: biochemical, Bacillus sp. V230 (FERM BP-5054); settings: 2 w/v % substrate, 2 units/g substrate, 40° C., pH 5.5, 24 hours
Protocol: A solution with a final concentration of 2 w/v % raffinose, erlose, stachyose, lactose, xylofructoside, maltose, cellobiose, lactose, inulin or laevan as a substrate was mixed with 2 units/g substrate of a β-fructofuranosidase obtained by the method in Experiment 2, and allowed to react enzymatically at 40° C. and pH 5.5 for 24 hours. The reaction mixture was subjected to thin layer chromatography (hereinafter abbreviated as "TLC") using "KIESEL GEL 60", an aluminum plate, 20×20 cm, commercialized by Merck & Co., Inc., NJ, USA, to confirm whether the enzyme acts on these saccharides. The solvent system used in the TLC consisted of 1-butanol, pyridine, and water (=7:3:1 by volume), and samples were developed once at ambient temperature. The saccharides comprising fructose units as constituent saccharides were colored by spraying a 0.5-N phosphoric acid solution containing 0.2 w/v % naphthoresorcinol and heating at 110° C. for about 5 min, while other saccharides were colored by spraying a methanol solution containing 20 w/v % sulfuric acid and heating at 110° C. for about 10 min.

Row | Compound | Action of the enzyme on the substrate (release of fructose)
1 | OC[C@H]1O[C@@H](O[C@H]2[C@H](O)[C@@H](O)C(O)O[C@@H]2CO)[C@H](O)[C@@H](O)[C@@H]1O (some centres unmarked) [Cellobiose] | does not act on
2 | OC[C@H]1O[C@@H](O[C@H]2[C@H](O)[C@@H](O)C(O)O[C@@H]2CO)[C@H](O)[C@@H](O)[C@H]1O (some centres unmarked) [Lactose] | does not act on
3 | OC[C@H]1O[C@H](O[C@H]2[C@H](O)[C@@H](O)[C@H](O)O[C@@H]2CO)[C@H](O)[C@@H](O)[C@@H]1O [Maltose] | does not act on
4 | OC[C@H]1O[C@H](OC[C@H]2O[C@H](O[C@]3(CO)O[C@H](CO)[C@@H](O)[C@@H]3O)[C@H](O)[C@@H](O)[C@@H]2O)[C@H](O)[C@@H](O)[C@H]1O [Raffinose] | acts on
5 | OC[C@H]1O[C@@](CO)(O[C@H]2O[C@H](CO)[C@@H](O[C@H]3O[C@H](CO)[C@@H](O)[C@H](O)[C@H]3O)[C@H](O)[C@H]2O)[C@@H](O)[C@@H]1O [erlose] | acts on
6 | OC[C@H]1O[C@@H](O[C@H]2[C@H](O)[C@@H](O)[C@@H](O[C@]3(CO)O[C@H](CO)[C@@H](O)[C@@H]3O)O[C@@H]2CO)[C@H](O)[C@@H](O)[C@H]1O [lactosucrose] | acts on
7 | OC[C@H]1O[C@H](OC[C@H]2O[C@H](OC[C@H]3O[C@H](O[C@]4(CO)O[C@H](CO)[C@@H](O)[C@@H]4O)[C@H](O)[C@@H](O)[C@@H]3O)[C@H](O)[C@@H](O)[C@H]2O)[C@H](O)[C@@H](O)[C@H]1O [stachyose] | acts on
8 | OC[C@H]1O[C@@](CO)(O[C@H]2O[C@H](CO)[C@@H](O)[C@H](O)[C@H]2O)[C@@H](O)[C@@H]1O [sucrose] | acts on
9 | OC[C@H]1O[C@@](CO)(O[C@H]2OC[C@@H](O)[C@H](O)[C@H]2O)[C@@H](O)[C@@H]1O [xylofructoside] | acts on
10 | inulin | does not act on
11 | laevan | does not act on

system: β-fructofuranosidase; assay: Inhibition of the enzyme activity by metal ions; format: biochemical, Bacillus sp. V230 (FERM BP-5054); settings: one mM metal ion
Protocol: The activity of β-fructofuranosidase according to the present invention is assayed as follows: Add 0.2 ml of an enzyme solution to 5 ml of an aqueous solution (pH 6.0) consisting of 1.0 w/v % sucrose, 20 mM acetate buffer, and 5 mM calcium chloride. Incubate the mixture at 40° C. for 10 min, add the Somogyi copper solution to suspend the reaction, and assay the reducing power by the Somogyi-Nelson's method. As a control, provide an enzyme solution pre-heated to inactivate the enzyme at 100° C. for 10 min, and assay the reducing power similarly as above. One unit activity of the enzyme is defined as the amount of enzyme that increases the reducing power of 2 μmol glucose per minute when assayed on the above assay.
In accordance with the method used in the above assay for the enzyme activity, the influence of pH and temperature on the present β-fructofuranosidase activity was studied in the presence of or in the absence of 5 mM calcium chloride. […] The optimum pH of the enzyme was about 5.5-6.0 when incubated at 40° C. for 10 min both in the presence of and in the absence of calcium ion, while the optimum temperature of the enzyme was about 50° C. in the presence of calcium ion and about 45° C. in the absence of calcium ion when incubated at pH 6.0 for 10 min. The pH stability of the present enzyme was determined by incubating in 50 mM buffers with different pHs at 4° C. for 24 hours, and assaying the residual enzyme activity after adjusting the buffers to pH 6. The thermal stability of the enzyme was determined by incubating in 20 mM acetate buffers (pH 6.0) at different temperatures for an hour, and assaying the residual enzyme activity in each buffer after cooling the buffers. The results of pH and thermal stabilities of the present enzyme were respectively in FIGS. 3 and 4. The pH stability of the enzyme was about 5.0-8.0, and the thermal stability was about 45° C. […] One mM Cu^++, Pb^++, Fe^++, Fe^+++ or Hg^++ inhibited the enzyme activity.

Row | Compound | Inhibition of the enzyme activity
12 | [Cu+2] [Cu^++] | inhibited
13 | [Fe+3] [Fe^+++] | inhibited
14 | [Fe+2] [Fe^++] | inhibited
15 | [Hg+2] [Hg^++] | inhibited
16 | [Pb+2] [Pb^++] | inhibited

system: β-fructofuranosidase; assay: Acceptor specificity (TLC, sucrose as donor); format: biochemical, Bacillus sp. V230 (FERM BP-5054); settings: summary of Table 1
Protocol: A saccharide solution with a final concentration of 10%, which consists of one of the monosaccharides, oligosaccharides, and alcohols in Table 1, and an equal amount of sucrose as a donor, d.s.b., was mixed with 2 units/g sucrose of a purified β-fructofuranosidase obtained by the method in Experiment 2, and allowed to react enzymatically at 40° C. and pH 5.5 for 24 hours. The mixtures before the enzymatic reaction and the reaction mixtures after the enzymatic reaction were subjected to TLC similarly as in Experiment 4, and the saccharides were colored by spraying 0.5-N phosphoric acid containing 0.2 w/v % naphthoresorcinol and heating at 110° C. for about 5 min to check the formation of transferred saccharides.

Row | Compound | Transfer of fructosyl residue to the acceptor (in words)
17 | OC[C@H]1O[C@@H](O[C@H]2[C@H](O)[C@@H](O)C(O)O[C@@H]2CO)[C@H](O)[C@@H](O)[C@@H]1O (some centres unmarked) [Cellobiose] | effectively transfers
18 | O=C[C@H](O)[C@@H](O)[C@@H](O)[C@H](O)CO [D-Galactose] | effectively transfers
19 | OC[C@@H](O)[C@@H](O)[C@H](O)[C@@H](O)CO [D-Sorbitol] | effectively transfers
20 | OC[C@@H](O)[C@H](O)[C@@H](O)CO [D-Xylitol] | effectively transfers
21 | O=C[C@H](O)[C@@H](O)[C@H](O)CO [D-Xylose] | effectively transfers
22 | OCCO [Ethylene glycol] | effectively transfers
23 | OCC(O)CO [Glycerol] | effectively transfers
24 | OC[C@H]1O[C@H](OC[C@H]2OC(O)[C@H](O)[C@@H](O)[C@@H]2O)[C@H](O)[C@@H](O)[C@@H]1O (some centres unmarked) [Isomaltose] | effectively transfers
25 | OC[C@H]1O[C@@H](O[C@H]2[C@H](O)[C@@H](O)C(O)O[C@@H]2CO)[C@H](O)[C@@H](O)[C@H]1O (some centres unmarked) [Lactose] | effectively transfers
26 | OC[C@@H](O)[C@@H](O[C@H]1O[C@H](CO)[C@@H](O)[C@H](O)[C@H]1O)[C@H](O)[C@@H](O)CO [Maltitol] | effectively transfers
27 | OC[C@H]1O[C@H](O[C@H]2[C@H](O)[C@@H](O)[C@H](O)O[C@@H]2CO)[C@H](O)[C@@H](O)[C@@H]1O [Maltose] | effectively transfers
28 | OC[C@H]1O[C@H](O[C@H]2[C@H](O)[C@@H](O)[C@@H](O[C@H]3[C@H](O)[C@@H](O)C(O)O[C@@H]3CO)O[C@@H]2CO)[C@H](O)[C@@H](O)[C@@H]1O (some centres unmarked) [Maltotriose] | effectively transfers
29 | OC[C@H]1O[C@H](OC[C@H]2OC(O)[C@H](O)[C@@H](O)[C@@H]2O)[C@H](O)[C@@H](O)[C@H]1O (some centres unmarked) [Melibiose] | effectively transfers
30 | OC[C@H]1O[C@H](OC[C@H]2O[C@H](O[C@H]3[C@H](O)[C@@H](O)C(O)O[C@@H]3CO)[C@H](O)[C@@H](O)[C@@H]2O)[C@H](O)[C@@H](O)[C@@H]1O (some centres unmarked) [Panose] | effectively transfers
31 | OC[C@H]1O[C@H](O[C@H]2O[C@H](CO)[C@@H](O)[C@H](O)[C@H]2O)[C@H](O)[C@@H](O)[C@@H]1O [Trehalose] | effectively transfers

system: dd-strain mice; assay: Acute toxicity test, oral; format: in vivo; settings: 7-week-old dd-strain mice
Protocol: Using 7-week-old dd-strain mice, a powder rich in lactosucrose, obtained by the method in Example A-4 described later, was administered orally to the mice for acute toxicity test. No mouse died up to a dose of 15 g/kg mouse, and a higher dose test was impossible. […] Similarly as above, a powder rich in erlose obtained by the method in Example A-6 described later, a syrup rich in xylosylfructoside obtained by the method in Example A-8 described later, a syrup rich in fructosyltrehalose obtained by the method in Example A-11, or a syrup rich in isomaltosylfructoside obtained by the method in Example A-12 described later was orally administered to 7-week-old dd-strain mice for acute toxicity test. No mouse died up to a dose of 15 g/kg mouse, and a higher does test was impossible.

Row | Compound | Toxicity (in words)
32 | OC[C@H]1O[C@@H](O[C@H]2[C@H](O)[C@@H](O)[C@@H](O[C@]3(CO)O[C@H](CO)[C@@H](O)[C@@H]3O)O[C@@H]2CO)[C@H](O)[C@@H](O)[C@H]1O [lactosucrose] | relatively low in toxicity
